Legend:
[1] = biological target: T1, Prostaglandin G/H synthase 1 (Ovis aries, UniProt P05979); assay: Inhibition of ovine COX1 assessed as reduction in PGF2alpha production using arachidonic acid as substrate preincubated with enzyme for 5 mins followed by substrate addition and measured after 2 mins by colorimetric analysis
T1 sequence (P05979 whole entry): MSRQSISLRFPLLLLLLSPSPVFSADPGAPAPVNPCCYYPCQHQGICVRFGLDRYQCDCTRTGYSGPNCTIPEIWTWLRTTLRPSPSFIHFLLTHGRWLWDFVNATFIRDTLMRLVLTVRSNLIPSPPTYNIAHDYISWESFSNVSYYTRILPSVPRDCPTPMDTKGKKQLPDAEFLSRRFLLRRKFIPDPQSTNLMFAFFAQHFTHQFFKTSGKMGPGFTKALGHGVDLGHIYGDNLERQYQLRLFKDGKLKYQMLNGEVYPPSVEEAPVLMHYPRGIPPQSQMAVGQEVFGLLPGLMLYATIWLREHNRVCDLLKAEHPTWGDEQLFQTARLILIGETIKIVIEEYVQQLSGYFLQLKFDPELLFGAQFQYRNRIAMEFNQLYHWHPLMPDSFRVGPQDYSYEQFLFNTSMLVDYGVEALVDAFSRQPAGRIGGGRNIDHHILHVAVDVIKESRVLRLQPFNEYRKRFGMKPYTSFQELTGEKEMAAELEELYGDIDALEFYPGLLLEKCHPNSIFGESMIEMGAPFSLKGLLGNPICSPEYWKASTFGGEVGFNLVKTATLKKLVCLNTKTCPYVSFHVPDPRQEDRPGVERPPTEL

Mus musculus = assay: Analgesic activity in Swiss albino mouse administered ip and measured after 60 mins by hot plate method; format: functional; conditions: 1 h
Rattus norvegicus = assay: Antiinflammatory activity against Sprague-Dawley rat assessed as reduction in carragenan-induced paw edema administered ip and measured after 2 hrs by plethysmometry; format: functional

Row | Structure (SMILES) | IC50 [1] | ED50 (Mus musculus) | ED50 (Rattus norvegicus)
1 | O=c1c2ccccc2nc(S)n1CCc1ccccn1 | > 100 µM |  | 
2 | CCOC(=O)CSc1nc2ccccc2c(=O)n1CCc1ccccn1 |  | > 200 mg/kg | > 200 mg/kg
3 | NNC(=O)CSc1nc2ccccc2c(=O)n1CCc1ccccn1 | > 100 µM |  | 
4 | CC(C)c1ccc(CSc2nc3ccccc3c(=O)n2CCc2ccccn2)cc1 |  | > 200 mg/kg | > 200 mg/kg
5 | N#CCSc1nc2ccccc2c(=O)n1CCc1ccccn1 |  | > 200 mg/kg | > 200 mg/kg
6 | CCn1c(S)nnc1CSc1nc2ccccc2c(=O)n1CCc1ccccn1 | > 100 µM | 71.4 mg/kg | 91.9 mg/kg
7 | CCNC(=S)NNC(=O)CSc1nc2ccccc2c(=O)n1CCc1ccccn1 | > 100 µM | 33.3 mg/kg | 70.5 mg/kg
8 | O=C1c2ccccc2C(=O)N1CCCSc1nc2ccccc2c(=O)n1CCc1ccccn1 |  | > 200 mg/kg | > 200 mg/kg
9 | COc1ccc(C(=O)NNC(=O)CSc2nc3ccccc3c(=O)n2CCc2ccccn2)cc1 | > 100 µM | 101 mg/kg | 101 mg/kg
10 | O=c1c2ccccc2nc(SCc2ccc(Cl)cc2)n1CCc1ccccn1 | > 100 µM | 99.2 mg/kg | 65.7 mg/kg
11 | CCNc1nnc(CSc2nc3ccccc3c(=O)n2CCc2ccccn2)s1 |  | > 200 mg/kg | > 200 mg/kg
12 | O=C(CSc1nc2ccccc2c(=O)n1CCc1ccccn1)NNC(=O)c1ccccc1 | > 100 µM | 86.1 mg/kg | 90.1 mg/kg
13 | O=c1c2ccccc2nc(SCCN2CCOCC2)n1CCc1ccccn1 |  | > 200 mg/kg | > 200 mg/kg
14 | CCC(=O)NNC(=O)CSc1nc2ccccc2c(=O)n1CCc1ccccn1 | > 100 µM | 95.5 mg/kg | 83.3 mg/kg
15 | COc1ccc(NC(=S)NNC(=O)CSc2nc3ccccc3c(=O)n2CCc2ccccn2)cc1 |  | > 200 mg/kg | > 200 mg/kg
16 | O=C(CSc1nc2ccccc2c(=O)n1CCc1ccccn1)NNC(=S)NCc1ccccc1 |  | 47.4 mg/kg | > 200 mg/kg
17 | O=c1c2ccccc2nc(SCc2nnc(S)n2-c2ccccc2)n1CCc1ccccn1 |  | > 200 mg/kg | > 200 mg/kg
18 | O=c1c2ccccc2nc(SCc2nnc(Nc3ccccc3)s2)n1CCc1ccccn1 |  | > 200 mg/kg | > 200 mg/kg
19 | O=c1c2ccccc2nc(SCc2nnc(NCc3ccccc3)s2)n1CCc1ccccn1 |  | > 200 mg/kg | > 200 mg/kg
20 | CSc1nc2ccccc2c(=O)n1CCc1ccccn1 |  | > 200 mg/kg | > 200 mg/kg
21 | O=C(CSc1nc2ccccc2c(=O)n1CCc1ccccn1)NNC(=S)Nc1ccccc1 |  | > 200 mg/kg | > 200 mg/kg
22 | COc1ccc(Nc2nnc(CSc3nc4ccccc4c(=O)n3CCc3ccccn3)s2)cc1 |  | > 200 mg/kg | > 200 mg/kg
23 | CCSc1nc2ccccc2c(=O)n1CCc1ccccn1 | > 100 µM | 105 mg/kg | 74.5 mg/kg
24 | O=C(CSc1nc2ccccc2c(=O)n1CCc1ccccn1)NNC(=O)c1ccc(Cl)cc1 |  | > 200 mg/kg | > 200 mg/kg
25 | O=c1c2ccccc2nc(SCc2ccccc2)n1CCc1ccccn1 |  | > 200 mg/kg | > 200 mg/kg
26 | O=c1c2ccccc2nc(SCc2nnc(S)n2Cc2ccccc2)n1CCc1ccccn1 |  | > 200 mg/kg | > 200 mg/kg
27 | Cc1ccc(-c2cc(C(F)(F)F)nn2-c2ccc(S(N)(=O)=O)cc2)cc1 [CELECOXIB] |  | 71.6 mg/kg | 84.3 mg/kg
